Results reported in patent US20160318987A1 (MEDIMMUNE LIMITED, priority 2013, published 2016).
Like-named read-outs stand apart in the source and are kept apart here. Where a SMILES comes first, the peptide text is derived from it. Where no end group is shown, it is not given here. Side-chain parts run from the residue outwards. [ ]: non-standard residue; d: D form. αMeF = C[C@](N)(Cc1ccccc1)C(=O)O; Nle = CCCC[C@H](N)C(=O)O; Aib = CC(C)(N)C(=O)O; Mal = maleimide

Key:
hGIP-R = target: T1, hGIP-R (Homo sapiens, UniProt P48546); assay: cAMP functional assay, cells expressing human GIP receptor (primary assay); format: cell-based; conditions: n = 2
T1 construct: expressed in transfected cells
T1 sequence (P48546 22-466): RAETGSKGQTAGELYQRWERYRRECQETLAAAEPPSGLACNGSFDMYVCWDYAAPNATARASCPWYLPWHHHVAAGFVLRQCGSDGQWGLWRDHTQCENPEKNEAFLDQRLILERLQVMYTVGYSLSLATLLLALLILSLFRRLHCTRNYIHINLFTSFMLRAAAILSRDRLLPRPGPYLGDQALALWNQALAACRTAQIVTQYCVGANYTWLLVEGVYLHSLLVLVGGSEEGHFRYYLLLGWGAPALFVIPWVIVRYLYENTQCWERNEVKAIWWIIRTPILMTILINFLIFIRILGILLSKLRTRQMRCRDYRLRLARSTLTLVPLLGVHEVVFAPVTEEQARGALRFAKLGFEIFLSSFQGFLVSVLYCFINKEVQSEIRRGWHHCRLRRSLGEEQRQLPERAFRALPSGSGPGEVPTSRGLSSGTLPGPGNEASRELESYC
Protocol: (§1) The biological activities/receptor potencies of the synthetic GLP-1 peptides described herein are suitably tested for biological activity, e.g., stimulation of one or more cellular receptor responses. Stable cell lines expressing human, mouse, rat, or dog GLP-1 receptor (GLP-1R), glucagon receptor (GCGR) or glucose-dependent insulinotropic peptide (gastric inhibitory polypeptide) receptor (GIPR) are generated in HEK293 cells or CHO cells by standard methods.
(§2) cAMP assays were performed using “assay buffer”: Assay Buffer: 0.1% BSA (Sigma #A3059) in HBSS (Sigma #H8264) with 25 mM HEPES, pH 7.4 and containing 0.5 mM IBMX (Sigma #17018).
(§3) Low protein binding 384-well plates (Greiner #781280) are used to perform eleven 1 in 5 serial dilutions of test samples which are made in assay buffer. All sample dilutions are made in duplicate.
(§4) A frozen cryo-vial of cells expressing the receptor of interest is thawed rapidly in a water-bath, transferred to pre-warmed assay buffer and spun at 240× g for 5 minutes. Cells are re-suspended in assay buffer at a batch-dependent optimized concentration (e.g. hGCGR cells at 2×10^5 cells/ml, hGLP-1R and hGIPR cells at 1×10^5 cells /ml).
(§5) From the dilution plate, a 5 μL replica is stamped onto a black shallow-well u-bottom 384-well plate (Corning #3676). To this, 5 μL cell suspension is added and the plates incubated at room temperature for 30 minutes.
(§6) cAMP levels are measured using a commercially available cAMP dynamic 2 HTRF kit (Cisbio, Cat #62AM4PEJ), following the two step protocol as per manufacturer's recommendations. In brief; anti-cAMP cryptate (donor fluorophore) and cAMP-d2 (acceptor fluorophore) are made up separately by diluting each 1/20 in conjugate & lysis buffer provided in the kit. 5 μL anti-cAMP cryptate is added to all wells of the assay plate, and 5 μL cAMP-d2 is added to all wells except non-specific binding (NSB) wells, to which conjugate and lysis buffer are added. Plates are incubated at room temperature for one hour and then read on an Envision (Perkin Elmer) using excitation wavelength of 320 nm and emission wavelengths of 620 nm & 665 nm. EC50 values of the synthetic peptides determined in cAMP assays are then determined.

hGLP-1R = target: T2, hGLP-1R (Homo sapiens, UniProt P43220); assay: cAMP functional assay, cells expressing human GLP-1 receptor (primary assay); format: cell-based; conditions: n = 2
T2 construct: expressed in transfected cells
Protocol: as §1, §2, §3, §4, §5, §6

T2 sequence (P43220 24-463): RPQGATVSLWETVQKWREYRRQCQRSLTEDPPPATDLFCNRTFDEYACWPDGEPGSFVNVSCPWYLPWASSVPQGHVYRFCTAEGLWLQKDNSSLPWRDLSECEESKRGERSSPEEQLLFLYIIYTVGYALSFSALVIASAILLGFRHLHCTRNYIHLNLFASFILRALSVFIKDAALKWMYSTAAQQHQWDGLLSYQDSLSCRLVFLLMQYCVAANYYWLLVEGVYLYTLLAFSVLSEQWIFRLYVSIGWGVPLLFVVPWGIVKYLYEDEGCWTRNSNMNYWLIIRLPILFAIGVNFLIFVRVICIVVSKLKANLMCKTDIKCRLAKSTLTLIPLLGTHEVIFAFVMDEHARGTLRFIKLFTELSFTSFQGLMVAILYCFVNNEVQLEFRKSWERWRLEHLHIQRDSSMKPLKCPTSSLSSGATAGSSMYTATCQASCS

Row | Compound | EC50 (hGIP-R) | EC50 (hGLP-1R) | EC50 (hGLP-1R; read-out: Primary assay EC50 (n = 2) hGLP-1R)
1 | CC[C@H](C)[C@H](NC(=O)[C@](C)(Cc1ccccc1)NC(=O)[C@H](CCC(=O)O)NC(=O)[C@H](CCCCN)NC(=O)[C@H](C)NC(=O)[C@H](C)NC(=O)[C@H](CCC(N)=O)NC(=O)CNC(=O)[C@H](CCC(=O)O)NC(=O)[C@H](CC(C)C)NC(=O)[C@](C)(Cc1ccccc1)NC(=O)[C@H](CO)NC(=O)[C@H](CO)NC(=O)[C@@H](NC(=O)[C@H](CC(=O)O)NC(=O)[C@H](CO)NC(=O)[C@@H](NC(=O)[C@H](Cc1ccccc1)NC(=O)[C@H](CO)NC(=O)CNC(=O)[C@H](CCC(=O)O)NC(=O)C(C)(C)NC(=O)[C@@H](N)Cc1c[nH]cn1)[C@@H](C)O)C(C)C)C(=O)N[C@@H](C)C(=O)N[C@@](C)(Cc1ccccc1)C(=O)N[C@@H](CC(C)C)C(=O)N[C@H](C(=O)N[C@@H](CCCCN)C(=O)NCC(=O)N[C@@H](CCCNC(=N)N)C(N)=O)C(C)C [SEQ ID NO: 37, H-(Aib)^2-EG-(S)^5-FTSDV^10 SS-(α-MeF)^13-LE^15 GQAAK^20 E-(α-MeF)^22-IA-(α-MeF)^25 LVKGR^30] (H-H[Aib]EGSFTSDVSS[αMeF]LEGQAAKE[αMeF]IA[αMeF]LVKGR-NH2) | 102 nM | 0.191 nM | 
2 | CC[C@H](C)[C@H](NC(=O)[C@](C)(Cc1ccccc1)NC(=O)[C@H](CCC(=O)O)NC(=O)[C@H](CCCCN)NC(=O)[C@H](C)NC(=O)[C@H](C)NC(=O)[C@H](CCC(N)=O)NC(=O)CNC(=O)[C@H](CCC(=O)O)NC(=O)[C@H](CC(C)C)NC(=O)[C@](C)(Cc1ccccc1)NC(=O)[C@H](CO)NC(=O)[C@H](CO)NC(=O)[C@@H](NC(=O)[C@H](CC(=O)O)NC(=O)[C@H](CO)NC(=O)[C@@H](NC(=O)[C@](C)(Cc1ccccc1)NC(=O)[C@H](CO)NC(=O)CNC(=O)[C@H](CCC(=O)O)NC(=O)C(C)(C)NC(=O)[C@@H](N)Cc1c[nH]cn1)[C@@H](C)O)C(C)C)C(=O)N[C@@H](C)C(=O)N[C@@](C)(Cc1ccccc1)C(=O)N[C@@H](CC(C)C)C(=O)N[C@H](C(=O)N[C@@H](CCCCN)C(=O)NC(C)(C)C(=O)N[C@@H](CCCNC(=N)N)C(N)=O)C(C)C [SEQ ID NO: 42, H-(Aib)^2-EG-(S)^5-(α-MeF)^6-TSDV^10 SS-(α-MeF)^13-LE^15 GQAAK^20 E-(α-MeF)^22-IA-(α-MeF)^25 LVK-(Aib)^29-R^30] (H-H[Aib]EGS[αMeF]TSDVSS[αMeF]LEGQAAKE[αMeF]IA[αMeF]LVK[Aib]R-NH2) | 102 nM | 0.0234 nM | 
3 | CC[C@H](C)[C@H](NC(=O)[C@H](Cc1ccccc1)NC(=O)[C@H](CCC(=O)O)NC(=O)[C@H](CCCCN)NC(=O)[C@H](C)NC(=O)[C@H](C)NC(=O)[C@H](CCC(N)=O)NC(=O)CNC(=O)[C@H](CCC(=O)O)NC(=O)[C@H](CC(C)C)NC(=O)[C@](C)(Cc1ccccc1)NC(=O)[C@H](CO)NC(=O)[C@H](CO)NC(=O)[C@@H](NC(=O)[C@H](CC(=O)O)NC(=O)[C@H](CO)NC(=O)[C@@H](NC(=O)[C@](C)(Cc1ccccc1)NC(=O)[C@H](CO)NC(=O)CNC(=O)[C@H](CCC(=O)O)NC(=O)C(C)(C)NC(=O)[C@@H](N)Cc1c[nH]cn1)[C@@H](C)O)C(C)C)C(=O)N[C@@H](C)C(=O)N[C@@](C)(Cc1ccccc1)C(=O)N[C@@H](CC(C)C)C(=O)N[C@H](C(=O)N[C@@H](CCCCN)C(=O)NCC(=O)N[C@@H](CCCNC(=N)N)C(N)=O)C(C)C [SEQ ID NO: 35, H-(Aib)^2-EG-(S)^5-(α-MeF)^6-TSDV^10 SS-(α-MeF)^13-LE^15 GQAAK^20 EFIA-(α-MeF)^25 LVKGR^30] (H-H[Aib]EGS[αMeF]TSDVSS[αMeF]LEGQAAKEFIA[αMeF]LVKGR-NH2) | 102 nM | 0.0201 nM | 
4 | CCCC[C@H](NC(=O)[C@H](C)NC(=O)[C@@H](NC(=O)[C@H](CCCC)NC(=O)[C@H](CCC(=O)O)NC(=O)[C@H](CCCCN)NC(=O)[C@H](C)NC(=O)[C@H](C)NC(=O)[C@H](CCC(N)=O)NC(=O)CNC(=O)[C@H](CCC(=O)O)NC(=O)[C@H](CC(C)C)NC(=O)[C@H](CCCC)NC(=O)[C@H](CO)NC(=O)[C@H](CO)NC(=O)[C@@H](NC(=O)[C@H](CC(=O)O)NC(=O)[C@H](CO)NC(=O)[C@@H](NC(=O)[C@H](CCCC)NC(=O)[C@@H](NC(=O)CNC(=O)[C@H](CCC(=O)O)NC(=O)C(C)(C)NC(=O)[C@@H](N)Cc1c[nH]cn1)[C@@H](C)O)[C@@H](C)O)C(C)C)[C@@H](C)CC)C(=O)N[C@@H](CC(C)C)C(=O)N[C@H](C(=O)N[C@@H](CCCCN)C(=O)NCC(=O)N[C@@H](CCCNC(=N)N)C(N)=O)C(C)C [SEQ ID NO: 17, H-(Aib)^2-EGT^5-(Nle)^6-TSDV^10 SS-(Nle)^13-LE^15 GQAAK^20 E-(Nle)^22-IA-(Nle)^25 LVKGR^30] (H-H[Aib]EGT[Nle]TSDVSS[Nle]LEGQAAKE[Nle]IA[Nle]LVKGR-NH2) | 102 nM | 3.48 nM | 
5 | CC[C@H](C)[C@H](NC(=O)[C@H](Cc1ccccc1)NC(=O)[C@H](CCC(=O)O)NC(=O)[C@H](CCCCN)NC(=O)[C@H](C)NC(=O)[C@H](C)NC(=O)[C@H](CCC(N)=O)NC(=O)CNC(=O)[C@H](CCC(=O)O)NC(=O)[C@H](CC(C)C)NC(=O)[C@H](Cc1ccccc1)NC(=O)[C@H](CO)NC(=O)[C@H](CO)NC(=O)[C@@H](NC(=O)[C@H](CC(=O)O)NC(=O)[C@H](CO)NC(=O)[C@@H](NC(=O)[C@H](Cc1ccccc1)NC(=O)[C@@H](NC(=O)CNC(=O)[C@H](CCC(=O)O)NC(=O)C(C)(C)NC(=O)[C@@H](N)Cc1c[nH]cn1)[C@@H](C)O)[C@@H](C)O)C(C)C)C(=O)N[C@@H](C)C(=O)N[C@@H](Cc1ccccc1)C(=O)N[C@@H](CC(C)C)C(=O)N[C@H](C(=O)N[C@@H](CCCCN)C(=O)NCC(=O)N[C@@H](CCCNC(=N)N)C(N)=O)C(C)C [SEQ ID NO: 18, H-(Aib)^2-EGT^5-FTSDV^10 SS-(F)^13-LE^15 GQAAK^20 EFIA-(F)^25 LVKGR^30] (H-H[Aib]EGTFTSDVSSFLEGQAAKEFIAFLVKGR-NH2) | 102 nM | 0.0163 nM | 
6 | CC[C@H](C)[C@H](NC(=O)[C@](C)(Cc1ccccc1)NC(=O)[C@H](CCC(=O)O)NC(=O)[C@H](CCCCN)NC(=O)[C@H](C)NC(=O)[C@H](C)NC(=O)[C@H](CCC(N)=O)NC(=O)CNC(=O)[C@H](CCC(=O)O)NC(=O)[C@H](CC(C)C)NC(=O)[C@](C)(Cc1ccccc1)NC(=O)[C@H](CO)NC(=O)[C@H](CO)NC(=O)[C@@H](NC(=O)[C@H](CC(=O)O)NC(=O)[C@H](CO)NC(=O)[C@@H](NC(=O)[C@](C)(Cc1ccccc1)NC(=O)[C@@H](NC(=O)CNC(=O)[C@H](CCC(=O)O)NC(=O)C(C)(C)NC(=O)[C@@H](N)Cc1c[nH]cn1)[C@@H](C)O)[C@@H](C)O)C(C)C)C(=O)N[C@@H](C)C(=O)N[C@@](C)(Cc1ccccc1)C(=O)N[C@@H](CC(C)C)C(=O)N[C@H](C(=O)N[C@@H](CCCCN)C(=O)NCC(=O)N[C@@H](CCCNC(=N)N)C(N)=O)C(C)C [SEQ ID NO: 19, H-(Aib)^2-EGT^5-(α-MeF)^6-TSDV^10 SS-(α-MeF)^13-LE^15 GQAAK^20 E-(α-MeF)^22-IA-(α-MeF)^25 LVKGR^30] (H-H[Aib]EGT[αMeF]TSDVSS[αMeF]LEGQAAKE[αMeF]IA[αMeF]LVKGR-NH2) | 102 nM | 0.026 nM | 
7 | H-(Aib)^2-EG-(S)^5-(α-MeF)^6-TSDV^10 SS-(α-MeF)^13-LE^15 GQAAK^20 E-(α-MeF)^22-IA-(α-MeF)^25 LVKG-(G)^30-(SSG)3-(Cys-Mal-mPEG)[40 kD] (H[Aib]EGS[αMeF]TSDVSS[αMeF]LEGQAAKE[αMeF]IA[αMeF]LVKGGSSGSSGSSGC([Mal-mPEG 40 kDa]); not fully specified (C-terminus); printed as H-(Aib)^2-EG-(S)^5-(α-MeF)^6-TSDV^10 SS-(α-MeF)^13-LE^15 GQAAK^20 E-(α-MeF)^22-IA-(α-MeF)^25 LVKG-(G)^30-(SSG)3-(Cys-Mal-mPEG)[40 kD]) [SEQ ID NO: 50] |  |  | 0.0278 nM
